Data: PubChem BioAssay (NCI)
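In this assay, cells in 96-well plates receive the compound at five concentrations for 48 hours. Endpoints are linearly interpolated between the surrounding concentrations. Definition used: TGI = concentration required for complete inhibition of growth.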

test system: SK-MEL-28 melanoma; assay: NCI anticancer screen, dose series, 48 h

| Compound | TGI |
| --- | --- |
| COn1cc(C=O)c2ccccc21 | > 100 µM |
| C=CCNC1=C2C[C@@H](C)C[C@@H](OC)[C@@H](OC(=O)CCCN)[C@H](C)/C=C(\C)[C@@H](OC(N)=O)[C@H](OC)/C=C\C=C(/C)C(=O)NC(=CC1=O)C2=O | 41.9 µM |
| O=C1NC(=O)C(c2c[nH]c3cc(Br)ccc23)=C1c1cn(C(c2ccccc2)(c2ccccc2)c2ccccc2)cn1 | 92.6 µM |
| CC(C)=CCS(=O)c1ccccc1NC1=CC(=O)CC(C)(C)C1 (configuration not stated) | > 100 µM |
| O=C(O)c1nc(-c2ccccn2)c(-c2ccccn2)nc1C(=O)O | 11.1 µM |
| COC1=C(Br)[C@H](O)[C@@]2(C=C1Br)CC(C(=O)NCCCCCN=C(N)N)=NO2 | > 10 µM |
| COc1cc(/C=C2\C[C@H]3[C@@H]4CC=C5C[C@@H](O)CC[C@]5(C)[C@H]4CC[C@]3(C)C2=O)cc(OC)c1OC | > 100 µM |
| C#CCn1ncc2c(SCc3ccccc3)ncnc21 | > 100 µM |
| O=C1c2cc3c(cc2CC12Cc1cc4c(cc1C2=O)CCC4)CCCC3 (configuration not stated) | > 100 µM |
| COc1ccc2c(c1C)C(=O)C(O)(CC=C(C)C)O2 (configuration not stated) | > 100 µM |
| Cc1cccc2c1[C@]13OC(C)[C@]4(C)CC5OC(=O)[C@@]1(C)[C@@H]5[C@]34C(=O)O2 (some centres not stated) | > 100 µM |
| CCN(CC)/C(Cl)=C(Cl)\C(=C1\Nc2ccc(OC)cc21)[N+](=O)[O-] | > 100 µM |

test system: T-47D breast; assay: NCI anticancer screen, dose series, 48 h

| Compound | TGI |
| --- | --- |
| COc1ccc(CCNC2=CC(=O)c3ncccc3C2=O)cc1OC | 24.7 µM |
| CN(C)C1=Nc2ccccc2C(=S)N2CSCC12 (configuration not stated) | > 100 µM |
| CC1(C)OCC2OC3(c4nc(C#N)c(N)o4)OC(C)(C)OC3C2O1 (configuration not stated) | > 100 µM |
| CCC1OC2C(CC=C(C)C)=C3OC(C)(O)C(C)(CC)C(OC(=O)c4ccccc4)C3=C3OC(=O)C=C1C32 (configuration not stated) | > 100 µM |
| COn1cc(C=O)c2ccccc21 | > 100 µM |
| C=CCNC1=C2C[C@@H](C)C[C@@H](OC)[C@@H](OC(=O)CCCN)[C@H](C)/C=C(\C)[C@@H](OC(N)=O)[C@H](OC)/C=C\C=C(/C)C(=O)NC(=CC1=O)C2=O | > 67.2 µM |
| O=C1NC(=O)C(c2c[nH]c3cc(Br)ccc23)=C1c1cn(C(c2ccccc2)(c2ccccc2)c2ccccc2)cn1 | 93 µM |
| CC(C)=CCS(=O)c1ccccc1NC1=CC(=O)CC(C)(C)C1 (configuration not stated) | > 100 µM |
| O=C(O)c1nc(-c2ccccn2)c(-c2ccccn2)nc1C(=O)O | 24.1 µM |
| COC1=C(Br)[C@H](O)[C@@]2(C=C1Br)CC(C(=O)NCCCCCN=C(N)N)=NO2 | > 10 µM |
| COc1cc(/C=C2\C[C@H]3[C@@H]4CC=C5C[C@@H](O)CC[C@]5(C)[C@H]4CC[C@]3(C)C2=O)cc(OC)c1OC | 64.2 µM |
| C#CCn1ncc2c(SCc3ccccc3)ncnc21 | 27.1 µM |
| O=C1c2cc3c(cc2CC12Cc1cc4c(cc1C2=O)CCC4)CCCC3 (configuration not stated) | > 100 µM |
| COc1ccc2c(c1C)C(=O)C(O)(CC=C(C)C)O2 (configuration not stated) | > 100 µM |
| Cc1cccc2c1[C@]13OC(C)[C@]4(C)CC5OC(=O)[C@@]1(C)[C@@H]5[C@]34C(=O)O2 (some centres not stated) | > 100 µM |
| CCN(CC)/C(Cl)=C(Cl)\C(=C1\Nc2ccc(OC)cc21)[N+](=O)[O-] | > 100 µM |

test system: A498 renal; assay: NCI anticancer screen, dose series, 48 h

| Compound | TGI |
| --- | --- |
| COc1ccc(CCNC2=CC(=O)c3ncccc3C2=O)cc1OC | 3.39 µM |
| CN(C)C1=Nc2ccccc2C(=S)N2CSCC12 (configuration not stated) | > 100 µM |
| CC1(C)OCC2OC3(c4nc(C#N)c(N)o4)OC(C)(C)OC3C2O1 (configuration not stated) | > 100 µM |
| CCC1OC2C(CC=C(C)C)=C3OC(C)(O)C(C)(CC)C(OC(=O)c4ccccc4)C3=C3OC(=O)C=C1C32 (configuration not stated) | > 100 µM |
| COn1cc(C=O)c2ccccc21 | 3.97 µM |
| C=CCNC1=C2C[C@@H](C)C[C@@H](OC)[C@@H](OC(=O)CCCN)[C@H](C)/C=C(\C)[C@@H](OC(N)=O)[C@H](OC)/C=C\C=C(/C)C(=O)NC(=CC1=O)C2=O | 36.3 µM |
| O=C1NC(=O)C(c2c[nH]c3cc(Br)ccc23)=C1c1cn(C(c2ccccc2)(c2ccccc2)c2ccccc2)cn1 | 37.2 µM |
| CC(C)=CCS(=O)c1ccccc1NC1=CC(=O)CC(C)(C)C1 (configuration not stated) | > 100 µM |
| O=C(O)c1nc(-c2ccccn2)c(-c2ccccn2)nc1C(=O)O | 4.12 µM |
| COC1=C(Br)[C@H](O)[C@@]2(C=C1Br)CC(C(=O)NCCCCCN=C(N)N)=NO2 | > 10 µM |
| COc1cc(/C=C2\C[C@H]3[C@@H]4CC=C5C[C@@H](O)CC[C@]5(C)[C@H]4CC[C@]3(C)C2=O)cc(OC)c1OC | > 100 µM |
| C#CCn1ncc2c(SCc3ccccc3)ncnc21 | > 100 µM |
| O=C1c2cc3c(cc2CC12Cc1cc4c(cc1C2=O)CCC4)CCCC3 (configuration not stated) | > 100 µM |
| COc1ccc2c(c1C)C(=O)C(O)(CC=C(C)C)O2 (configuration not stated) | > 100 µM |
| Cc1cccc2c1[C@]13OC(C)[C@]4(C)CC5OC(=O)[C@@]1(C)[C@@H]5[C@]34C(=O)O2 (some centres not stated) | > 100 µM |
| CCN(CC)/C(Cl)=C(Cl)\C(=C1\Nc2ccc(OC)cc21)[N+](=O)[O-] | > 100 µM |

test system: NCI-H522 lung; assay: NCI anticancer screen, dose series, 48 h

| Compound | TGI |
| --- | --- |
| COc1ccc(CCNC2=CC(=O)c3ncccc3C2=O)cc1OC | 8.36 µM |
| CN(C)C1=Nc2ccccc2C(=S)N2CSCC12 (configuration not stated) | 29 µM |
| CC1(C)OCC2OC3(c4nc(C#N)c(N)o4)OC(C)(C)OC3C2O1 (configuration not stated) | > 100 µM |
| CCC1OC2C(CC=C(C)C)=C3OC(C)(O)C(C)(CC)C(OC(=O)c4ccccc4)C3=C3OC(=O)C=C1C32 (configuration not stated) | 47.6 µM |
| COn1cc(C=O)c2ccccc21 | > 100 µM |
| C=CCNC1=C2C[C@@H](C)C[C@@H](OC)[C@@H](OC(=O)CCCN)[C@H](C)/C=C(\C)[C@@H](OC(N)=O)[C@H](OC)/C=C\C=C(/C)C(=O)NC(=CC1=O)C2=O | 26.4 µM |
| O=C1NC(=O)C(c2c[nH]c3cc(Br)ccc23)=C1c1cn(C(c2ccccc2)(c2ccccc2)c2ccccc2)cn1 | 34 µM |
| CC(C)=CCS(=O)c1ccccc1NC1=CC(=O)CC(C)(C)C1 (configuration not stated) | > 100 µM |
